Assay results published in the NIST ThermoML archive (doi:10.1016/j.fluid.2015.10.026).
Numbers after ± are expanded uncertainties.

Conditions: Liquid, Brillouin light scattering

Cc1ccccc1 [toluene] gave a speed of sound (323.15 K) of 1200.8 ± 6 m/s, a speed of sound (373.15 K) of 1000 ± 5 m/s and a speed of sound (423.15 K) of 806 ± 5.2 m/s. It also gave a speed of sound (473.15 K) of 616.2 ± 3.3 m/s and a speed of sound (523.15 K) of 425.5 ± 2.4 m/s.
